Values joined by “and” are separate entries in the source; they are usually repeats but may differ in a detail not shown here. Identical values can stand only once. Like-named read-outs stand apart in the source and are kept apart here.
What was measured:
[1] = for Day 90 Free Plasma AUC24 at NOAEL for Dog 90-Day Toxicology: 30 mg/kg/day; for Day 90 Free Plasma AUC24 at NOAEL for Rat 90-Day Toxicology: 300 mg/kg/day
Pharmacokinetics in rats = format: in vivo, rat
Description: (§3) The validity and reproducibility of the assays were determined, and the precision and accuracy for calibration standards and quality control samples were examined. […] The analytes were stable in plasma under the storage and assay conditions. […] Assay performances were satisfactory and met acceptance criteria for system performance suitability, quantitation range, calibration linearity, assay accuracy and precision, and assay recovery.

[2] = In vitro plasma protein binding, rat; format: in vitro ADME
Description: (§1) CX-8998 distributes readily to the brain in rats and to brain and cerebral spinal fluid (CSF) in dogs.

[3] = In vitro plasma protein binding, dog; format: in vitro ADME
Description: as §1

Cav3.3 = target: T1, Cav3.3 (Homo sapiens, UniProt Q9P0X4); experiment: Cav3.3 FLIPR calcium influx assay (HEK 293 cells); format: cell-based; settings: read-out: IC50
T1 construct: expressed in transfected cells; host or cells: HEK 293
T1 sequence (Q9P0X4 whole entry, species assumed): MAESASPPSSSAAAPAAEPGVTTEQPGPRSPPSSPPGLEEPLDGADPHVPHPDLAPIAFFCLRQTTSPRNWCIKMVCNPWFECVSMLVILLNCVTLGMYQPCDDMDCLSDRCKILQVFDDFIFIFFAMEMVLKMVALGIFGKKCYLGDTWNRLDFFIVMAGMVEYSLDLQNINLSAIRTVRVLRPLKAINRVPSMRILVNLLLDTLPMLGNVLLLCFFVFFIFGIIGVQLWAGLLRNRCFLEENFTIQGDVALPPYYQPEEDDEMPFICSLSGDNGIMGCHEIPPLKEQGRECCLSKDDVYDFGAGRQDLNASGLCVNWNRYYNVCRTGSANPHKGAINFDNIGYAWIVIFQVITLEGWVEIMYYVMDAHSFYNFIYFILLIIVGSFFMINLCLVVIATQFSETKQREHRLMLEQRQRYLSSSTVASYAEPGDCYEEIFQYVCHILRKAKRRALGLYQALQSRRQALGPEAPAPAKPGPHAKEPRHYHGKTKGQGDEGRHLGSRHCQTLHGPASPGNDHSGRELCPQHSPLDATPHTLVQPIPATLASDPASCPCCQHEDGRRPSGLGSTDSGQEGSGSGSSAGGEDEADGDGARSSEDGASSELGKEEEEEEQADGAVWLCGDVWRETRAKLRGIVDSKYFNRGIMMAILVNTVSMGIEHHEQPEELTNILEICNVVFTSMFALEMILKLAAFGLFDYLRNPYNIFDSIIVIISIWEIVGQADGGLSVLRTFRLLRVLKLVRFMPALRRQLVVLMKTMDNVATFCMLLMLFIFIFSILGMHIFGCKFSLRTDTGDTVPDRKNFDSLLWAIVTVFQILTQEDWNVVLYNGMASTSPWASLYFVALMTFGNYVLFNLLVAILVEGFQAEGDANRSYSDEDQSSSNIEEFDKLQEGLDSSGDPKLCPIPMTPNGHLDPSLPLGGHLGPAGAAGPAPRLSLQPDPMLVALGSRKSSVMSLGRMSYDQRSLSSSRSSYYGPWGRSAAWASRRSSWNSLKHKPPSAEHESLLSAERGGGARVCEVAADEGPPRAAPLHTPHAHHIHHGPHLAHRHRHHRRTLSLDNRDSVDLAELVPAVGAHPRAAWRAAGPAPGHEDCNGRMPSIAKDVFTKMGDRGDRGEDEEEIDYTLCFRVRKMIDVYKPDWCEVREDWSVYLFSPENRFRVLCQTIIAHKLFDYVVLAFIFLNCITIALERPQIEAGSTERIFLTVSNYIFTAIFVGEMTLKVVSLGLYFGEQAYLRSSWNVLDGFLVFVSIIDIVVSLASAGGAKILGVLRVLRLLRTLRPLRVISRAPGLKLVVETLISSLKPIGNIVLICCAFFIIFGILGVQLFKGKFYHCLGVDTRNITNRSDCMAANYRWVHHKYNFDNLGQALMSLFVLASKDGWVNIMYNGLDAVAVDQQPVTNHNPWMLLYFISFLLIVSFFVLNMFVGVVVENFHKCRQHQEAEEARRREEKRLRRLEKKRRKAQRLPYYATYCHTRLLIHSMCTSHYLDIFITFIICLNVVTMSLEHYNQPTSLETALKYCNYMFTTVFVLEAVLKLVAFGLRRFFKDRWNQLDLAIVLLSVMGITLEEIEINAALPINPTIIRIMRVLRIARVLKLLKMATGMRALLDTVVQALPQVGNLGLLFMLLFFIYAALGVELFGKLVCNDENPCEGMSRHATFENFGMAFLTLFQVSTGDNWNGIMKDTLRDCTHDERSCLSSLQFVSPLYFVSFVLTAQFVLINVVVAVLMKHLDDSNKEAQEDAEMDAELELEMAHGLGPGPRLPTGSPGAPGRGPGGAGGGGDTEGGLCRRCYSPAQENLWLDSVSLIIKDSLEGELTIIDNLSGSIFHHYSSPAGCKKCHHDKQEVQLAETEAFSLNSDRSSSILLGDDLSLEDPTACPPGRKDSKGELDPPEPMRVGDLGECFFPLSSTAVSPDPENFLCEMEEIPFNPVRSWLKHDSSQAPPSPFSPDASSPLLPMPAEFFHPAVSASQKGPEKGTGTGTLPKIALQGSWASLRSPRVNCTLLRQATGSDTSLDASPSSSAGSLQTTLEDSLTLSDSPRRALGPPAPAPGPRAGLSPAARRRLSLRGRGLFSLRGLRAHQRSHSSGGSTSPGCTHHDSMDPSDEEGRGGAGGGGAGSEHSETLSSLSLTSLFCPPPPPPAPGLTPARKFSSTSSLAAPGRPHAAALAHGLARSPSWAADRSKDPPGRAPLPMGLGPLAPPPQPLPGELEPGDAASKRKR

clinical = settings: human, plasma, oral, 8 mg
Description: Subjects will be screened for study eligibility within 28 days before administration of the first dose of study drug. Subjects who meet the study eligibility criteria will be admitted to the clinical research unit in the afternoon of the day before administration of the first dose of study drug (Period 1/Day −1).
Treatments A, B, and C will be separated by a minimum 7-day washout period. […] Administration of Treatment D may be separated from administration of Treatments A, B, and C by approximately 4 weeks to allow for analysis of the bioanalytical samples from the first 3 treatments.

[4] = Simulated Css and total active moiety, 10 mg BID; set-up: species or system human; settings: for Css, estimated mean / Steady-state AUC24, estimated mean: CX-8998 10 mg twice daily fasted
[5] = 90-day oral toxicology in Beagle dogs; settings: dog, in vivo; for NOAEL at 90 days: both
[6] = In vitro plasma protein binding, monkey; format: in vitro ADME
Description: as §1

[7] = 4-week oral toxicology in Beagle dogs
[8] = Pharmacokinetics in rhesus monkeys; format: in vivo, rhesus monkey
Description: as §3

WAG/Rij rats = experiment: WAG/Rij rat model of absence epilepsy; format: in vivo
Description: Other T-type antagonists from structurally diverse series have shown similar efficacy in this model (Broicher, 2007; Blumenfeld, 2008; Broicher, 2008; Shipe, 2008; Yang, 2008; Uebele, 2009; Russo, 2010; Russo, 2011).
Data were scored with automated seizure analysis software, averaged, and normalized to enable treatment comparisons (FIG. 76)
Control animals received vehicle administrations. […] Source: Merck TTA Package Description (FIG. 79).

P-glycoprotein = P-glycoprotein bidirectional transport; format: in vitro ADME, human, monkey, and rat
Description: (§2) Glucuronide conjugates of the oxygenated metabolites are detected in human, monkey, and dog hepatocyte preparations. […] However, the abundance of CYP3A5, CYP2C19, and CYP2D6 in human liver microsomes is low (2%-5%) relative to the primary contributors, CYP3A4 (˜30%) and CYP2C9 (˜20%). […] Information on reproductive and developmental toxicology was obtained in a 28-day pivotal female fertility study in rats and in preliminary embryo-fetal development studies in rats and rabbits.

[9] = target: T2, breast cancer resistance protein (BCRP) (Homo sapiens, UniProt Q9UNQ0); experiment: BCRP transport; format: in vitro ADME; settings: 30 μM
T2 sequence (Q9UNQ0 1-655): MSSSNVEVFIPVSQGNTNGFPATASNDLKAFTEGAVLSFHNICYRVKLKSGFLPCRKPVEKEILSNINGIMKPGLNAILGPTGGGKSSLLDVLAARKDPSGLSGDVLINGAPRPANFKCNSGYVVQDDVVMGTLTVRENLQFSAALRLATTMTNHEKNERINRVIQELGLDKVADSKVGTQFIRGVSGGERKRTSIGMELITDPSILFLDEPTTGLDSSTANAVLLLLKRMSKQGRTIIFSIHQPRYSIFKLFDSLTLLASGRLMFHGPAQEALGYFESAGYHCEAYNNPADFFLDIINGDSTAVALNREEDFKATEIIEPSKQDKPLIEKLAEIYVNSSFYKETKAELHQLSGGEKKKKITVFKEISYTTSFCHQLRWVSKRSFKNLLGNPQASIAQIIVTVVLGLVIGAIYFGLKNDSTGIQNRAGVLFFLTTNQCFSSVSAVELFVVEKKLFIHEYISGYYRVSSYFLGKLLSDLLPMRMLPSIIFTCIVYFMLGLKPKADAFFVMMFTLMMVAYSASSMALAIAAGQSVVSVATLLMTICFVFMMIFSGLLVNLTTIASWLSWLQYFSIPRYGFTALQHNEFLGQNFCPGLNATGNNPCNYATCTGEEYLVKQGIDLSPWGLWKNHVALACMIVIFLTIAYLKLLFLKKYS
Description: as §2

Pharmacokinetics in dogs = format: in vivo, dog
Description: as §3

in vivo = settings: rat, po
[10] = Rat, IV 2 mg/kg, mean of 2 animals
[11] = simulated from CX-8998 10 mg BID
[12] = Beagle dog, 4-week toxicity, oral gavage
[13] = Monkey, IV 2 mg/kg, mean (SD), 3 animals

Q: Which “Day 90 Free Margin for AUC24 at NOAEL for Dog 90-Day Toxicology” value ([1]; Female dogs vs human 10 mg BID) does the source give for `CC(C)c1ccc(CC(=O)N[C@H](C)c2ccc(OCC(F)(F)F)cn2)cc1` [CX-8998] here?
A: 19

Q: What about the “Day 90 Free Margin for Cmax at NOAEL for Dog 90-Day Toxicology” value ([1]; Female dogs vs human 10 mg BID (fed)) of the same compound?
A: 57

Q: What about the “Day 90 Free Plasma AUC24 at NOAEL for Dog 90-Day Toxicology” value ([1]; Female dogs) of the same compound?
A: 1089 nM · hr

Q: And the “Day 90 Free Margin for AUC24 at NOAEL for Rat 90-Day Toxicology” value ([1]; Female rats vs human 10 mg BID)?
A: 81

Q: What about the “Day 90 Free Margin for Cmax at NOAEL for Rat 90-Day Toxicology” value ([1]; Female rats vs human 10 mg BID (fed)) of the same compound?
A: 184

Q: And the “Day 90 Free Plasma AUC24 at NOAEL for Rat 90-Day Toxicology” value ([1]; Female rats)?
A: 4528 nM · hr

Q: And the “Day 90 Free Margin for AUC24 at NOAEL for Dog 90-Day Toxicology” value ([1]; Male dogs vs human 10 mg BID)?
A: 18

Q: What about the “Day 90 Free Margin for Cmax at NOAEL for Dog 90-Day Toxicology” value ([1]; Male dogs vs human 10 mg BID (fed)) of the same compound?
A: 51

Q: What about the “Day 90 Free Plasma AUC24 at NOAEL for Dog 90-Day Toxicology” value ([1]; Male dogs) of the same compound?
A: 1005 nM · hr

Q: And the “Day 90 Free Margin for AUC24 at NOAEL for Rat 90-Day Toxicology” value ([1]; Male rats vs human 10 mg BID)?
A: 37

Q: What about the “Day 90 Free Margin for Cmax at NOAEL for Rat 90-Day Toxicology” value ([1]; Male rats vs human 10 mg BID (fed)) of the same compound?
A: 78

Q: What about the “Day 90 Free Plasma AUC24 at NOAEL for Rat 90-Day Toxicology” value ([1]; Male rats) of the same compound?
A: 2088 nM · hr

Q: And the “NOAEL exposure vs intended free clinical exposures” value ([1]; beagle, dog)?
A: approximately 20 times

Q: And the “Exposure without effects on fertility or reproduction vs intended clinical free AUC” value ([1]; rat)?
A: > 100 times

Q: And the “NOAEL exposure vs intended free clinical exposures” value ([1]; rat)?
A: at least 39 times

Q: And the CL (Pharmacokinetics in rats; [10])?
A: 29 mL/min/kg

Q: What about the t½ (Pharmacokinetics in rats; [10]) of the same compound?
A: 0.8 h

Q: What about the F (Pharmacokinetics in rats; Rat, oral 10 mg/kg vs IV 2 mg/kg, mean (SD)) of the same compound?
A: 42 (13) %

Q: What about the Plasma clearance (Pharmacokinetics in rats; rat, in vivo) of the same compound?
A: 29 mL/min/kg

Q: What about the half-life (Pharmacokinetics in rats; rat, in vivo) of the same compound?
A: 0.8 h

Q: What about the bioavailability (Pharmacokinetics in rats; rat, plasma, po, 10 mg/kg, single dose) of the same compound?
A: 42%

Q: What about the t½ (Pharmacokinetics in rats; rodents) of the same compound?
A: 0.8 h

Q: What about the fraction unbound ([2]; rat plasma, read-out: In vitro plasma protein binding (converted)) of the same compound?
A: ~0.008

Q: What about the fraction unbound ([2]; rats, read-out: free fraction) of the same compound?
A: 0.008

Q: And the fraction unbound ([2]; rodents, read-out: Plasma-free fraction)?
A: 0.004

Q: What about the fraction unbound ([3]; dog plasma, read-out: In vitro plasma protein binding (converted)) of the same compound?
A: ~0.003

Q: And the fraction unbound ([3]; dogs, read-out: free fraction)?
A: 0.003

Q: What about the fraction unbound ([3]; read-out: Free fraction in dog plasma) of the same compound?
A: 0.003

Q: And the IC50 (Cav3.3; depolarizing conditions)?
A: ~3.6 nM and 3.6 nM

Q: What about the IC50 (Cav3.3; hyperpolarizing conditions) of the same compound?
A: ~161 nM and 161 nM

Q: What about the AUC(0-t) (clinical) of the same compound?
A: 7.49 µM·h

Q: What about the “Css, estimated mean” value ([4]; middle-aged and elderly men) of the same compound?
A: 874 nM

Q: What about the “Steady-state AUC24, estimated mean” value ([4]; middle-aged and elderly men) of the same compound?
A: 20.976 µM·h

Q: And the “Css, estimated mean” value ([4]; middle-aged and elderly women)?
A: 981 nM

Q: What about the “Steady-state AUC24, estimated mean” value ([4]; middle-aged and elderly women) of the same compound?
A: 23.544 µM·h

Q: What about the “Css, estimated mean” value ([4]; young men) of the same compound?
A: 583 nM

Q: What about the “Steady-state AUC24, estimated mean” value ([4]; young men) of the same compound?
A: 13.992 µM·h

Q: What about the “Cu, ss_adj” value ([4]; adjusted for fu and potency, 10 mg BID) of the same compound?
A: 2.3 nM

Q: What about the “Cp, ss” value [4, 11] of the same compound?
A: 583 nM

Q: And the “Cu, ss” value [4, 11]?
A: 2.3 nM

Q: And the NOAEL at 90 days ([5]; Beagle, po)?
A: 30 mg/kg/day

Q: What about the NOAEL at 90 days ([5]; beagle, oral) of the same compound?
A: 30 mg/kg/day

Q: What about the AUC ([5]; female, Beagle, po, 10 mg/kg/day) of the same compound?
A: 163 µM·h

Q: What about the AUC ([5]; female, beagle, po, 30 mg/kg/day) of the same compound?
A: 363 µM·h

Q: And the AUC ([5]; male, Beagle, po, 30 mg/kg/day)?
A: 335 µM·h

Q: What about the fraction unbound [6] of the same compound?
A: ~0.012

Q: And the NOEL [7, 12]?
A: NOEL. 20 mg/kg/day. Dose-limiting

Q: What about the “dose at which dose-limiting toxicity (mortality, physical signs) was observed” value [7, 12] of the same compound?
A: observed at 800 mg/kg/day

Q: And the NOEL ([7]; dog, in vivo)?
A: 20 mg/kg/day

Q: And the “Safety margin (AUC24) at the NOEL over expected clinical exposure” value ([7]; dog, in vivo)?
A: approximately 30 fold

Q: And the CL [8, 13]?
A: 15.9 (2.5) mL/min/kg

Q: What about the t½ [8, 13] of the same compound?
A: 1.3 (0.3) hr

Q: What about the F ([8]; Monkey, oral 20 mg/kg vs IV 2 mg/kg, mean (SD)) of the same compound?
A: 2.8 (10.) %

Q: And the Plasma clearance ([8]; rhesus monkey, in vivo)?
A: 16 mL/min/kg

Q: What about the “Vdss, mean” value ([8]; rhesus monkey, in vivo) of the same compound?
A: 0.9 L/kg

Q: And the half-life ([8]; rhesus monkey, in vivo)?
A: 1.3 h

Q: And the “Reduction in cumulative time spent in seizure” value (WAG/Rij rats; 1 mg/kg, 4 hours after dosing)?
A: 55%

Q: And the “Suppression of seizure frequency” value (WAG/Rij rats; 10 mg/kg)?
A: up to 50%

Q: And the Percent of inhibition (WAG/Rij rats; 10 mg/kg oral)?
A: 77%

Q: And the “Suppression of accumulated time in seizure” value (WAG/Rij rats; 10 mg/kg, 4 hours after dosing)?
A: 77%

Q: What about the “Suppression of accumulated time in seizure” value (WAG/Rij rats; 10 mg/kg, 15 hours after dosing) of the same compound?
A: 54%

Q: And the “P-glycoprotein substrate or inhibitor activity” value (P-glycoprotein)?
A: did not demonstrate any activity as a substrate or inhibitor

Q: And the “Inhibition of BCRP transport” value [9]?
A: 57%

Q: What about the t½ (Pharmacokinetics in dogs; Dog, IV […], mean (SD), 3 animals) of the same compound?
A: 7.3 (3.1) hr

Q: And the F (Pharmacokinetics in dogs; Dog, oral 0.5 mg/kg vs IV […], mean (SD))?
A: 76 (47) %

Q: What about the “Vdss, mean” value (Pharmacokinetics in dogs; dog, in vivo) of the same compound?
A: 0.8 L/kg

Q: And the half-life (Pharmacokinetics in dogs; dog, in vivo)?
A: 7.3 h

Q: And the bioavailability (Pharmacokinetics in dogs; dog, plasma, po, 0.5 mg/kg, single dose)?
A: 76%

Q: What about the half-life (in vivo; female, 5 mg/kg/day) of the same compound?
A: 1.6 h

Q: What about the half-life (in vivo; female, 100 mg/kg/day) of the same compound?
A: 9.25 h

Q: And the half-life (in vivo; female, 300 mg/kg/day)?
A: 5.28 h

Q: And the half-life (in vivo; male, 15 mg/kg/day)?
A: 2.87 h

Q: And the Tmax (in vivo; male, 100 mg/kg/day)?
A: 2 h

Q: What about the half-life (in vivo; male, 100 mg/kg/day) of the same compound?
A: 3.72 h

Q: And the half-life (in vivo; male, 300 mg/kg/day)?
A: 5.68 h

Source: patent US11311522B1 (Cavion, Inc., priority 2018, dated 2022)
